Assay results: ChEMBL document CHEMBL2203245 (Bioorg Med Chem Lett, 2012); call rule not given here

What was measured:
Mu-type opioid receptor [1] = molecular target: T1, Mu-type opioid receptor (Homo sapiens, UniProt P35372); assay: Antagonist activity at human mu opioid receptor expressed in CHO cells assessed as inhibition of DAMGO-induced [35S]GTPgammaS binding after 60 mins by scintillation counting relative to untreated-control; type: functional, cell-based
[2] = molecular target: T2, Kappa-type opioid receptor (Homo sapiens, UniProt P41145); assay: Displacement of [3H]U69,593 from human kappa opioid receptor expressed in CHO cells after 60 mins by scintillation counting; type: cell-based
T2 sequence (P41145 whole entry): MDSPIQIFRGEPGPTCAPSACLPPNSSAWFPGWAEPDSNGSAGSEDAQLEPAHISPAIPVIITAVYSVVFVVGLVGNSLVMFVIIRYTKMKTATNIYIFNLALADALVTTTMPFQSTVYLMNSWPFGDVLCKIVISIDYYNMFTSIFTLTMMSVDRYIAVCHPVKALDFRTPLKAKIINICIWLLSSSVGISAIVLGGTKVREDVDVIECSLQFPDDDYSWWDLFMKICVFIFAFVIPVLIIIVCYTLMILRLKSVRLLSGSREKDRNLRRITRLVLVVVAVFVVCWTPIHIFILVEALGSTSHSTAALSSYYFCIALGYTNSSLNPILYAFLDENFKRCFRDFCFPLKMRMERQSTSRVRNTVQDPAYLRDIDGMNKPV

Mu-type opioid receptor [3] = molecular target: T1, Mu-type opioid receptor; assay: Partial agonist activity at human mu opioid receptor expressed in CHO cells assessed as [35S]GTPgammaS binding after 60 mins by scintillation counting relative to untreated-control; type: functional, cell-based
[4] = molecular target: T3, Delta-type opioid receptor (Homo sapiens, UniProt P41143); assay: Antagonist activity at human delta opioid receptor expressed in CHO cells assessed as inhibition of SNC80-induced [35S]GTPgammaS binding after 60 mins by scintillation counting; type: functional, cell-based
T3 sequence (P41143 whole entry): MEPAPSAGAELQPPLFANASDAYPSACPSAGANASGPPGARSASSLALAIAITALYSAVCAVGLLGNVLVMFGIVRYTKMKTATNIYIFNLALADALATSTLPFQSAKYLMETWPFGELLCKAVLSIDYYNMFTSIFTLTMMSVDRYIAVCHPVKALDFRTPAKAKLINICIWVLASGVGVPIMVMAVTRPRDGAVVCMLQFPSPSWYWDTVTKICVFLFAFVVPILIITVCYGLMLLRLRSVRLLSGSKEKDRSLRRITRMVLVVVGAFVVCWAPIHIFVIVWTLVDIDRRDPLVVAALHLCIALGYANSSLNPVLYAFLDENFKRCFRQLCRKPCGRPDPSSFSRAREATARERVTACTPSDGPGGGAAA

[5] = molecular target: T2, Kappa-type opioid receptor; assay: Agonist activity at human kappa opioid receptor expressed in CHO cells assessed as [35S]GTPgammaS binding after 60 mins by scintillation counting; type: functional, cell-based
[6] = molecular target: T3, Delta-type opioid receptor; assay: Displacement of [3H]Naltrindole from human delta opioid receptor expressed in CHO cells after 3 hrs by scintillation counting; type: cell-based
[7] = molecular target: T2, Kappa-type opioid receptor; assay: Antagonist activity at human kappa opioid receptor expressed in CHO cells assessed as inhibition of U50,488-induced [35S]GTPgammaS binding after 60 mins by scintillation counting; type: functional, cell-based
[8] = molecular target: T3, Delta-type opioid receptor; assay: Agonist activity at human delta opioid receptor expressed in CHO cells assessed as [35S]GTPgammaS binding after 60 mins by scintillation counting; type: functional, cell-based
Homo sapiens [9] = species on record: Homo sapiens; assay: Selectivity ratio of Ki for human delta opioid receptor to Ki for human mu opioid receptor
Homo sapiens [10] = species on record: Homo sapiens; assay: Selectivity ratio of Ki for human kappa opioid receptor to Ki for human mu opioid receptor
Mu-type opioid receptor [11] = molecular target: T1, Mu-type opioid receptor; assay: Displacement of [3H]DAMGO from human mu opioid receptor expressed in CHO cells after 60 mins by scintillation counting; type: cell-based
Mu-type opioid receptor [12] = molecular target: T1, Mu-type opioid receptor; assay: Partial agonist activity at human mu opioid receptor expressed in CHO cells assessed as [35S]GTPgammaS binding after 60 mins by scintillation counting; type: functional, cell-based
Mu-type opioid receptor [13] = molecular target: T1, Mu-type opioid receptor; assay: Antagonist activity at human mu opioid receptor expressed in CHO cells assessed as inhibition of DAMGO-induced [35S]GTPgammaS binding after 60 mins by scintillation counting; type: functional, cell-based
[14] = molecular target: T3, Delta-type opioid receptor; assay: Partial agonist activity at human delta opioid receptor expressed in CHO cells assessed as [35S]GTPgammaS binding after 60 mins by scintillation counting; type: functional, cell-based
[15] = molecular target: T3, Delta-type opioid receptor; assay: Partial agonist activity at human delta opioid receptor expressed in CHO cells assessed as [35S]GTPgammaS binding after 60 mins by scintillation counting relative to untreated control; type: functional, cell-based
Mu-type opioid receptor [16] = molecular target: T1, Mu-type opioid receptor; assay: Agonist activity at human mu opioid receptor expressed in CHO cells assessed as [35S]GTPgammaS binding after 60 mins by scintillation counting relative to untreated-control; type: functional, cell-based

T1 sequence (P35372 whole entry): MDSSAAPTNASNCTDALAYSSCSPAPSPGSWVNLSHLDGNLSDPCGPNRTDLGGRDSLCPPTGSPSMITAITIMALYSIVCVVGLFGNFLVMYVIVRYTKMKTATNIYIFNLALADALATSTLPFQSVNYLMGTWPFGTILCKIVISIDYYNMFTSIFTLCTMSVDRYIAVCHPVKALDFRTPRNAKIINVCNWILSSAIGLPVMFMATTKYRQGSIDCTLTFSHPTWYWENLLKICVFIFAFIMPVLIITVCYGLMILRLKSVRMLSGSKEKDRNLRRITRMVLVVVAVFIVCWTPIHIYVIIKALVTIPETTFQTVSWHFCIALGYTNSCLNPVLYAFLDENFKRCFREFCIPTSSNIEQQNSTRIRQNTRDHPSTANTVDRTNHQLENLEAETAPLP

Compound: C[C@H]1[C@H]2Cc3ccc(C(=O)NCCc4ccc(-c5ccc(O)cc5)cc4)cc3[C@]1(C)CCN2CC1CC1
- Imax (Mu-type opioid receptor [1]): 62%
- Ki [2]: 0.36 nM
- Emax (Mu-type opioid receptor [3]): 31%
- IC50 ([4]; cho): Not Active
- EC50 [5]: 0.26 nM
- Ki [6]: 0.78 nM
- IC50 [7]: Not Active
- EC50 [8]: 0.31 nM

Compound: CC1C2Cc3ccc(C(=O)NCCc4ccc(-c5ccc(OC(F)(F)F)cc5)cc4)cc3C1(C)CCN2CC1CC1 (racemic)
- Ki [2]: 5.2 nM
- Ratio Ki (Homo sapiens [9]): 4
- Ki [6]: 6.6 nM
- Ratio Ki (Homo sapiens [10]): 3
- Ki (Mu-type opioid receptor [11]): 1.8 nM

Compound: CC1C2Cc3ccc(C(=O)NCCc4ccc(-c5ccc(OC(F)F)cc5)cc4)cc3C1(C)CCN2CC1CC1 (racemic)
- Ki [2]: 2.7 nM
- Ratio Ki (Homo sapiens [9]): 3
- Ki [6]: 0.8 nM
- Ratio Ki (Homo sapiens [10]): 9
- Ki (Mu-type opioid receptor [11]): 0.3 nM

Compound: CC1C2Cc3ccc(C(=O)NCCc4ccc(-c5cccc(O)c5)cc4)cc3C1(C)CCN2CC1CC1 (racemic)
- Ki [2]: 1.3 nM
- Ratio Ki (Homo sapiens [9]): 57
- Ki [6]: 1.2 nM
- Ratio Ki (Homo sapiens [10]): 62
- Ki (Mu-type opioid receptor [11]): 0.021 nM

Compound: CC1C2Cc3ccc(C(=O)NCCc4ccc(-c5ccccc5O)cc4)cc3C1(C)CCN2CC1CC1 (racemic)
- Imax (Mu-type opioid receptor [1]): 67%
- Ki [2]: 2.1 nM
- EC50 (Mu-type opioid receptor [12]): 1.5 nM
- Emax (Mu-type opioid receptor [3]): 48%
- IC50 (Mu-type opioid receptor [13]): 64 nM
- IC50 ([4]; cho): Not Active
- EC50 [5]: 0.086 nM
- Ki [6]: 0.24 nM
- Ki (Mu-type opioid receptor [11]): 0.0056 nM
- IC50 [7]: Not Active
- EC50 [8]: 0.16 nM

Compound: COc1ccc(-c2ccc(CCNC(=O)c3ccc4c(c3)C3(C)CCN(CC5CC5)C(C4)C3C)cc2)cc1OC (racemic)
- Imax (Mu-type opioid receptor [1]): 70%
- Ki [2]: 1.3 nM
- EC50 (Mu-type opioid receptor [12]): 1.6 nM
- Emax (Mu-type opioid receptor [3]): 32%
- IC50 (Mu-type opioid receptor [13]): 29 nM
- IC50 ([4]; read-out: IC50): 70 nM
- EC50 [14]: 6.2 nM
- Ratio Ki (Homo sapiens [9]): 211
- EC50 [5]: 3 nM
- Ki [6]: 1.5 nM
- Emax [15]: 73%
- Ratio Ki (Homo sapiens [10]): 183
- Ki (Mu-type opioid receptor [11]): 0.0071 nM
- IC50 [7]: Not Active

Compound: CC1C2Cc3ccc(C(=O)NCCc4ccc(-c5ccc6c(c5)OCO6)cc4)cc3C1(C)CCN2CC1CC1 (racemic)
- IC50 ([4]; cho): Not Active
- EC50 [5]: 0.34 nM
- IC50 [7]: Not Active
- EC50 [8]: 0.8 nM

Compound: COc1ccc(-c2ccc(CCNC(=O)c3ccc4c(c3)C3(C)CCN(CC5CC5)C(C4)C3C)cc2)cc1C (racemic)
- Imax (Mu-type opioid receptor [1]): 81%
- Emax (Mu-type opioid receptor [3]): 21%
- IC50 ([4]; cho): Not Active
- IC50 [7]: Not Active
- EC50 [8]: 2.8 nM

Compound: COc1ccc2cc(CCNC(=O)c3ccc4c(c3)C3(C)CCN(CC5CC5)C(C4)C3C)ccc2c1 (racemic)
- Imax (Mu-type opioid receptor [1]): 76%
- Ki [2]: 0.45 nM
- Emax (Mu-type opioid receptor [16]): 6.6%
- IC50 (Mu-type opioid receptor [13]): 45 nM
- IC50 ([4]; cho): Not Active
- EC50 [5]: 1.3 nM
- Ki [6]: 2.2 nM
- Ki (Mu-type opioid receptor [11]): 0.064 nM
- IC50 [7]: Not Active
- EC50 [8]: 7.5 nM

Compound: CC1C2Cc3ccc(C(=O)NCCc4ccc5ccccc5c4)cc3C1(C)CCN2CC1CC1 (racemic)
- Ki [2]: 0.2 nM
- Ratio Ki (Homo sapiens [9]): 5
- Ki [6]: 0.9 nM
- Ratio Ki (Homo sapiens [10]): 1
- Ki (Mu-type opioid receptor [11]): 0.18 nM

Compound: COc1ccc(-c2ccc(CCNC(=O)c3ccc4c(c3)C3(C)CCN(CC5CC5)C(C4)C3C)cc2)cc1 (racemic)
- Ki [2]: 1.5 nM
- Ratio Ki (Homo sapiens [9]): 2
- Ki [6]: 0.18 nM
- Ratio Ki (Homo sapiens [10]): 18
- Ki (Mu-type opioid receptor [11]): 0.084 nM

Compound: COc1cccc(-c2ccc(CCNC(=O)c3ccc4c(c3)C3(C)CCN(CC5CC5)C(C4)C3C)cc2)c1 (racemic)
- Ki [2]: 0.22 nM
- IC50 ([4]; cho): Not Active
- EC50 [5]: 3.1 nM
- Ki [6]: 1.3 nM
- IC50 [7]: Not Active
- EC50 [8]: 1.2 nM

Compound: COc1ccccc1-c1ccc(CCNC(=O)c2ccc3c(c2)C2(C)CCN(CC4CC4)C(C3)C2C)cc1 (racemic)
- Ki [2]: 0.38 nM
- Ratio Ki (Homo sapiens [9]): 7
- Ki [6]: 0.84 nM
- Ratio Ki (Homo sapiens [10]): 3
- Ki (Mu-type opioid receptor [11]): 0.12 nM

Compound: CC(C)Oc1ccc(-c2ccc(CCNC(=O)c3ccc4c(c3)C3(C)CCN(CC5CC5)C(C4)C3C)cc2)cc1 (racemic)
- Imax (Mu-type opioid receptor [1]): 72%
- EC50 (Mu-type opioid receptor [12]): 2.3 nM
- Emax (Mu-type opioid receptor [3]): 35%
- IC50 (Mu-type opioid receptor [13]): 13 nM
- IC50 ([4]; cho): Not Active
- IC50 [7]: Not Active
- EC50 [8]: 18 nM

Compound: CC1C2Cc3ccc(O)cc3C1(C)CCN2CC1CC1 (racemic)
- Ki [2]: 0.07 nM
- Ki [6]: 2 nM
